# Laboratory results reported in ChEMBL document CHEMBL1201862, “PubChem BioAssay data set” (2004).
#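 Where inhibition never reached the appropriate level, the endpoint shown equals the highest concentration tested. Otherwise, values were interpolated linearly from a five-concentration, 48-hour dose response in 96-well plates. GI50 is the concentration that inhibits growth by half.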 Activity calls are given as the source filed them. No stated cut-off is given here; in the data, active = GI50 up to about 1.1 µM and inactive = higher.
# Columns and labels:
# Assay in all cases: growth of human tumour cells (NCI), 48 h
# [1] = system: HCT-116
# [2] = system: HOP-92
# [3] = system: CCRF-CEM
# [4] = system: OVCAR-8
# [5] = system: T47D
# [6] = system: SK-MEL-28
# [7] = system: TK-10
# [8] = system: OVCAR-5
# [9] = system: SK-MEL-2
# [10] = system: MDA-N
# [11] = system: EKVX
# [12] = system: HT-29
# [13] = system: CAKI-1
# [14] = system: HL-60
# [15] = system: SK-OV-3
# [16] = system: NCI-H23
# [17] = system: PC-3
# [18] = system: SK-MEL-5
# [19] = system: SF-539
# [20] = system: DU-145
Structure (SMILES),GI50 [1],GI50 [2],GI50 [3],GI50 [4],GI50 [5],GI50 [6],GI50 [7],GI50 [8],GI50 [9],GI50 [10],GI50 [11],GI50 [12],GI50 [13],GI50 [14],GI50 [15],GI50 [16],GI50 [17],GI50 [18],GI50 [19],GI50 [20]
C[N+]12CCCCC1C(COc1cccc3cccnc13)CCC2 (stereo unspecified),61.2 µM (inactive),15.9 µM (inactive),> 100 µM (inactive),> 100 µM (inactive),> 100 µM (inactive),> 100 µM (inactive),> 100 µM (inactive),> 100 µM (inactive),> 100 µM (inactive),93.5 µM (inactive),> 100 µM (inactive),53.1 µM (inactive),> 100 µM (inactive),> 100 µM (inactive),> 100 µM (inactive),> 100 µM (inactive),> 100 µM (inactive),75 µM (inactive),> 100 µM (inactive),> 100 µM (inactive)
COc1cc(OCc2ccc3nc(-c4ccccc4)c(N)nc3c2)cc(OC)c1OC,3.61 µM (inactive),11.4 µM (inactive),16.7 µM (inactive),27.8 µM (inactive),14.4 µM (inactive),19.3 µM (inactive),24.1 µM (inactive),17.6 µM (inactive),19.9 µM (inactive),15.5 µM (inactive),19.7 µM (inactive),,23.4 µM (inactive),12.4 µM (inactive),,,17.8 µM (inactive),11.3 µM (inactive),20.7 µM (inactive),22.2 µM (inactive)
COc1cccc(OC)c1/C=C1\OC(=O)c2cccc(OC)c21,3.87 µM (inactive),8.69 µM (inactive),3.84 µM (inactive),4.59 µM (inactive),5.33 µM (inactive),6.7 µM (inactive),11.5 µM (inactive),13.2 µM (inactive),4.14 µM (inactive),0.596 µM (active),10.3 µM (inactive),2.11 µM (inactive),4.68 µM (inactive),0.931 µM (active),5.2 µM (inactive),19.4 µM (inactive),4.72 µM (inactive),3.13 µM (inactive),2.3 µM (inactive),5.32 µM (inactive)
CCOC(=O)N/N=C(\CC)NO,> 100 µM (inactive),> 100 µM (inactive),> 100 µM (inactive),> 100 µM (inactive),> 100 µM (inactive),> 100 µM (inactive),> 100 µM (inactive),> 100 µM (inactive),> 100 µM (inactive),> 100 µM (inactive),> 100 µM (inactive),> 100 µM (inactive),> 100 µM (inactive),> 100 µM (inactive),> 100 µM (inactive),> 100 µM (inactive),> 100 µM (inactive),> 100 µM (inactive),> 100 µM (inactive),> 100 µM (inactive)
O=C1NC2CCCCC2N=C1CC(=O)c1ccc(Br)cc1 (stereo unspecified),66.2 µM (inactive),10.2 µM (inactive),5.2 µM (inactive),4.19 µM (inactive),3.94 µM (inactive),> 100 µM (inactive),74.5 µM (inactive),> 100 µM (inactive),70.6 µM (inactive),> 100 µM (inactive),17.8 µM (inactive),> 100 µM (inactive),> 100 µM (inactive),> 100 µM (inactive),28.2 µM (inactive),> 100 µM (inactive),32.7 µM (inactive),> 100 µM (inactive),26.8 µM (inactive),> 100 µM (inactive)
COC(=O)c1c(OC(C)=O)ccc2c1c1c(n2C)C(=O)c2ccccc2C1=O,20.5 µM (inactive),1.34 µM (inactive),,25.8 µM (inactive),4.81 µM (inactive),31.8 µM (inactive),31 µM (inactive),34.3 µM (inactive),23.2 µM (inactive),19 µM (inactive),28.8 µM (inactive),46.8 µM (inactive),20.7 µM (inactive),32.1 µM (inactive),12.9 µM (inactive),19.7 µM (inactive),27.2 µM (inactive),13.9 µM (inactive),19.1 µM (inactive),14.6 µM (inactive)
CC1=C(C(=O)Nc2cccc3c2C(=O)NC3=O)CC(C(=O)Nc2cccc3c2C(=O)NC3=O)=C(C)N1,> 100 µM (inactive),> 100 µM (inactive),> 100 µM (inactive),,> 100 µM (inactive),> 100 µM (inactive),> 100 µM (inactive),> 100 µM (inactive),> 100 µM (inactive),> 100 µM (inactive),> 100 µM (inactive),,> 100 µM (inactive),> 100 µM (inactive),> 100 µM (inactive),> 100 µM (inactive),> 100 µM (inactive),> 100 µM (inactive),> 100 µM (inactive),> 100 µM (inactive)
CC(C)C1=CC23CCC4C(C)(C(=O)O)CCCC4(C)C2CC1C1C(=O)N(c2ccc(C(=O)O)cc2)C(=O)C13 (stereo unspecified),> 100 µM (inactive),> 100 µM (inactive),,> 100 µM (inactive),> 100 µM (inactive),> 100 µM (inactive),> 100 µM (inactive),,> 100 µM (inactive),> 100 µM (inactive),> 100 µM (inactive),> 100 µM (inactive),> 100 µM (inactive),> 100 µM (inactive),> 100 µM (inactive),> 100 µM (inactive),> 100 µM (inactive),> 100 µM (inactive),> 100 µM (inactive),> 100 µM (inactive)
CCO/C=N/C1=C(C#N)C(c2ccc(OC)c(OC)c2)c2c(-c3ccccc3)nn(-c3ccccc3)c2O1 (stereo unspecified),13.1 µM (inactive),13.4 µM (inactive),2.23 µM (inactive),19.2 µM (inactive),9.14 µM (inactive),15 µM (inactive),,10.7 µM (inactive),18.5 µM (inactive),18.7 µM (inactive),16.1 µM (inactive),19.1 µM (inactive),17 µM (inactive),3.21 µM (inactive),21.2 µM (inactive),15.4 µM (inactive),13.6 µM (inactive),12 µM (inactive),8.67 µM (inactive),14.6 µM (inactive)
COc1cc2c3c(n(Cc4ccccc4)c(=O)c2cc1OC)-c1ccccc1C3=O,> 100 µM (inactive),> 100 µM (inactive),17.9 µM (inactive),> 100 µM (inactive),> 100 µM (inactive),> 100 µM (inactive),> 100 µM (inactive),> 100 µM (inactive),> 100 µM (inactive),> 100 µM (inactive),> 100 µM (inactive),> 100 µM (inactive),92.9 µM (inactive),> 100 µM (inactive),,> 100 µM (inactive),> 100 µM (inactive),> 100 µM (inactive),90.2 µM (inactive),> 100 µM (inactive)
CCOC(=O)c1c2ccccc2n2c(=O)n(C)nnc12,> 100 µM (inactive),> 100 µM (inactive),> 100 µM (inactive),> 100 µM (inactive),> 100 µM (inactive),> 100 µM (inactive),> 75.5 µM (inactive),> 100 µM (inactive),> 100 µM (inactive),> 100 µM (inactive),99.8 µM (inactive),,> 100 µM (inactive),1.53 µM (inactive),> 80.5 µM (inactive),> 100 µM (inactive),> 100 µM (inactive),> 100 µM (inactive),> 56.2 µM (inactive),> 100 µM (inactive)
CCOC(=O)C1(C#N)C2(C#N)C(N)=NC(ON=C(C)C)(ON=C(C)C)C12C#N (stereo unspecified),> 100 µM (inactive),> 100 µM (inactive),> 100 µM (inactive),> 100 µM (inactive),> 100 µM (inactive),> 100 µM (inactive),> 100 µM (inactive),> 100 µM (inactive),> 100 µM (inactive),> 100 µM (inactive),> 100 µM (inactive),> 100 µM (inactive),> 100 µM (inactive),> 100 µM (inactive),> 100 µM (inactive),> 100 µM (inactive),> 100 µM (inactive),> 100 µM (inactive),,> 100 µM (inactive)
O=[N+]([O-])c1c2nc3n(c2cc2c1nc1n2CCC1)CCC3,> 100 µM (inactive),> 100 µM (inactive),> 100 µM (inactive),> 100 µM (inactive),> 100 µM (inactive),> 100 µM (inactive),> 100 µM (inactive),> 100 µM (inactive),,> 100 µM (inactive),> 100 µM (inactive),> 100 µM (inactive),> 100 µM (inactive),> 100 µM (inactive),> 100 µM (inactive),> 100 µM (inactive),> 100 µM (inactive),> 100 µM (inactive),> 100 µM (inactive),> 100 µM (inactive)
COc1ccc(C2CC(=O)CC(c3ccc(OC)cc3)C23C(=O)NC(=O)NC3=O)cc1 (stereo unspecified),27.4 µM (inactive),25.1 µM (inactive),32.7 µM (inactive),32.2 µM (inactive),> 10 µM (inactive),17.2 µM (inactive),89.5 µM (inactive),56.4 µM (inactive),18.5 µM (inactive),31.8 µM (inactive),32.9 µM (inactive),33.2 µM (inactive),33.1 µM (inactive),27 µM (inactive),,23.4 µM (inactive),33.9 µM (inactive),25 µM (inactive),> 100 µM (inactive),48 µM (inactive)
